# Laboratory results published in patent US4448962A, “Substituted quinoline carboxylic acid derivatives” (Kyorin Seiyaku Kabushiki Kaisha, priority 1978, dated 1984).
# Like-named read-outs stand apart in the source and are kept apart here.
# Experiments:
# Test in all cases: Antibacterial spectrum (Minimum Inhibitory Concentration)
# Type in all cases: cell-based
# Ser. marcescens IID 619 = conditions: Serratia marcescens
# From the text: (§1) The antibacterial tests were done according to the method authorized by the Chemotherapeutic Society of Japan.
# [1] = tested on: Pseudomonas aeruginosa V-1
# From the text: as §1
# [2] = tested on: Proteus vulgaris IFO 3167
# From the text: as §1
# Ps. aeruginosa IFO 12689 = conditions: Pseudomonas aeruginosa
# From the text: as §1
# [3] = tested on: Klebsiella pneumoniae IFO 3512
# From the text: as §1
# Ps. aeruginosa IID 1130 = conditions: Pseudomonas aeruginosa
# From the text: as §1
# [4] = tested on: Serratia marcescens IID 618
# From the text: as §1
# E. coli ATCC 10536 = conditions: Escherichia coli
# From the text: as §1
# Ps. aeruginosa IID 1210 = conditions: Pseudomonas aeruginosa
# From the text: as §1
# [5] = tested on: Salmonella enteritidies IID 604
# From the text: as §1
# Pr. vulgaris XK Denken = conditions: Proteus vulgaris, read-out: Minimum Inhibitory Concentration
# From the text: as §1
# Sta. aureus ATCC 14775 = conditions: Staphylococcus aureus
# From the text: as §1
# [6] = tested on: Bacillus subtilis PCI 219
# From the text: as §1
# Ser. marcescens IID 620 = conditions: Serratia marcescens
# From the text: as §1
# Shigella sonnei IID 969 = conditions: IID969; Shigella sonnei IID 969, Gram -
# From the text: as §1
# [7] = tested on: Escherichia coli NIHJ JC-2
# From the text: as §1
# [8] = tested on: Staphylococcus aureus 209P; conditions: read-out: Minimum Inhibitory Concentration
# From the text: as §1
# [9] = tested on: Mycobacterium smegmatis IFO 3083; conditions: Mycolicibacterium smegmatis, IFO3083; Mycobacterium smegmatis IFO 3083, Gram +; read-out: Minimum Inhibitory Concentration
# From the text: as §1
# [10] = IID619, Ser. marcescens IID 619, Gram -, read-out: Minimum Inhibitory Concentration
# [11] = V1, Pseudomonas aeruginosa V-1, Gram -, read-out: Minimum Inhibitory Concentration
# [12] = IFO3167, Proteus vulgaris IFO 3167, Gram -, read-out: Minimum Inhibitory Concentration
# [13] = IFO12689, Ps. aeruginosa IFO 12689, Gram -, read-out: Minimum Inhibitory Concentration
# [14] = Klebsiella pneumoniae, IFO3512, read-out: Minimum Inhibitory Concentration
# [15] = IID1130, Ps. aeruginosa IID 1130, Gram -, read-out: Minimum Inhibitory Concentration
# [16] = IID618, Serratia marcescens IID 618, Gram -, read-out: Minimum Inhibitory Concentration
# [17] = ATCC10536, read-out: Minimum Inhibitory Concentration
# [18] = IID1210, Ps. aeruginosa IID 1210, Gram -, read-out: Minimum Inhibitory Concentration
# [19] = IID604, Salmonella enteritidies IID 604, Gram -, read-out: Minimum Inhibitory Concentration
# [20] = ATCC14775, read-out: Minimum Inhibitory Concentration
# [21] = Bacillus subtilis, PCI219, read-out: Minimum Inhibitory Concentration
# [22] = IID620, Ser. marcescens IID 620, Gram -, read-out: Minimum Inhibitory Concentration
# [23] = NIHJJC2, Escherichia coli NIHJ JC-2, Gram -, read-out: Minimum Inhibitory Concentration
# [24] = Staphylococcus aureus 209P, Gram +
# [25] = IFO3512, Klebsiella pneumoniae IFO 3512, Gram -, read-out: Minimum Inhibitory Concentration
# [26] = ATCC10536, E. coli ATCC 10536, Gram -, read-out: Minimum Inhibitory Concentration
# [27] = ATCC14775, Sta. aureus ATCC 14775, Gram +, read-out: Minimum Inhibitory Concentration
# [28] = PCI219, Bacillus subtilis PCI 219, Gram +, read-out: Minimum Inhibitory Concentration
# [29] = IFO12689, read-out: Minimum Inhibitory Concentration
# [30] = Salmonella, IID604, read-out: Minimum Inhibitory Concentration
# [31] = Proteus vulgaris, IFO3167, read-out: Minimum Inhibitory Concentration
SMILES,MIC (Ser. marcescens IID 619; [10]) [µg/mL],"MIC [1, 11] [µg/mL]","MIC [2, 12] [µg/mL]",MIC (Ps. aeruginosa IFO 12689; [13]) [µg/mL],"MIC [3, 14] [µg/mL]",MIC (Ps. aeruginosa IID 1130; [15]) [µg/mL],"MIC [4, 16] [µg/mL]",MIC (E. coli ATCC 10536; [17]) [µg/mL],MIC (Ps. aeruginosa IID 1210; [18]) [µg/mL],"MIC [5, 19] [µg/mL]","MIC (Pr. vulgaris XK Denken; Pr. vulgaris XK Denken, Gram -) [µg/mL]",MIC (Sta. aureus ATCC 14775; [20]) [µg/mL],MIC (Ser. marcescens IID 620; [22]) [µg/mL],MIC (Shigella sonnei IID 969) [µg/mL],"MIC [7, 23] [µg/mL]","MIC [8, 24] [µg/mL]","MIC [3, 25] [µg/mL]",MIC (E. coli ATCC 10536; [26]) [µg/mL],MIC (Sta. aureus ATCC 14775; [27]) [µg/mL],"MIC [6, 28] [µg/mL]",also measured
"CCn1cc(C(=O)O)c(=O)c2cc(F)c(N3CCN(Cc4ccc(N)cc4)CC3)cc21.Cl [Example 7, 1-ethyl-7-[(4-p-aminobenzyl)-1-piperazinyl]-1,4-dihydro-6-fluoro-4-oxo-quinoline-3-carboxylic acid hydrochloride]",3.13,12.5,0.78,25,0.1,25,3.13,0.39,25,3.13,0.78,0.39,–,–,–,–,–,–,–,–,"MIC [6, 21]: 0.2 µg/mL"
"CCn1cc(C(=O)O)c(=O)c2cc(Br)c(N3CCN(C)CC3)cc21 [Example 23, 1-ethyl-6-bromo-1,4-dihydro-7-(4-methyl-1-piperazinyl)-4-oxoquinoline-3-carboxylic acid]",3.13,100,0.78,> 100,–,> 100,0.78,–,> 100,3.13,3.13,–,0.78,0.78,0.39,1.56,0.39,0.78,3.13,0.78,–
"CCn1cc(C(=O)O)c(=O)c2cc(F)c(N3CCNCC3)nc21.Cl [Example 1, 1-ethyl-1,4-dihydro-6-fluoro-7-(1-piperazinyl)-4-oxo-1,8-naphthyridine-3-carboxylic acid hydrochloride]",0.78,3.13,0.2,–,–,1.56,0.39,–,6.25,–,0.39,–,0.39,–,0.2,0.78,0.2,0.39,6.25,0.39,"MIC (Ps. aeruginosa IFO 12689; [29]): 6.25 µg/mL; MIC [5, 30]: 0.39 µg/mL"
"Cl.O=C(O)c1cn(CCF)c2cc(N3CCNCC3)c(F)cc2c1=O [Example 5, 1-(2-fluoroethyl)-6-fluoro-7-(1-piperazinyl)-4-oxo-1,4-dihydroquinoline-3-carboxylic acid hydrochloride]",–,–,–,–,< 0.1,–,–,0.2,–,–,–,6.25,–,< 0.1,–,–,–,–,–,–,"MIC (Ser. marcescens IID 620; IID620, read-out: Minimum Inhibitory Concentration): 0.2 µg/mL; MIC (Ser. marcescens IID 619; IID619, read-out: Minimum Inhibitory Concentration): 0.39 µg/mL; MIC ([1]; Pseudomonas aeruginosa, V1, read-out: Minimum Inhibitory Concentration): 0.78 µg/mL; MIC [2, 31]: 0.2 µg/mL; MIC (Ps. aeruginosa IFO 12689; [29]): 3.13 µg/mL; MIC ([7]; Escherichia coli, NIHJJC2, read-out: Minimum Inhibitory Concentration): < 0.1 µg/mL; MIC ([8]; Staphylococcus aureus, 209P): 1.56 µg/mL; MIC (Ps. aeruginosa IID 1130; IID1130, read-out: Minimum Inhibitory Concentration): 1.56 µg/mL; MIC ([4]; Serratia marcescens, IID618, read-out: Minimum Inhibitory Concentration): 0.2 µg/mL; MIC (Ps. aeruginosa IID 1210; IID1210, read-out: Minimum Inhibitory Concentration): 3.13 µg/mL; MIC [5, 30]: 0.78 µg/mL; MIC (Pr. vulgaris XK Denken): 0.39 µg/mL; MIC [6, 21]: 0.2 µg/mL"
CCn1cc(C(=O)O)c(=O)c2cc(Cl)c(N3CCN(CC(=O)O)CC3)cc21 [Example 14],–,> 100,25,> 100,–,–,–,–,–,–,12.5,–,–,–,12.5,–,12.5,12.5,–,50,"MIC ([8]; Staphylococcus aureus, 209P): 50 µg/mL; MIC [9]: > 100 µg/mL"
"C=Cn1cc(C(=O)O)c(=O)c2cc(F)c(N3CCN(C)CC3)cc21.Cl [Example 4, 1-vinyl-6-fluoro-7-(4-methyl-1-piperazinyl)-4-oxo-1,4-dihydroquinoline-3-carboxylic acid hydrochloride]",0.78,3.13,–,3.13,–,6.25,0.39,0.2,3.13,0.78,–,–,0.39,0.2,< 0.1,1.56,< 0.1,–,3.13,0.39,"MIC [2, 31]: 0.2 µg/mL; MIC (Pr. vulgaris XK Denken): 0.2 µg/mL"
